Target: T1, F508delCFTR cell surface expression in CFBE41o-F508delCFTR-HRP cells (Homo sapiens, UniProt P13569, DEL508-508)
T1 construct: fused on or other part: Horseradish peroxidase (HRP) reporter inserted in the fourth exofacial (extracellular) loop of CFTR; expression is doxycycline-inducible
Assay: Cell Surface Expression-Horse Radish Peroxidase (CSE-HRP) Assay
Type: cell-based
Conditions: for EC50: CFBE41o-F508delCFTR-HRP cells, 18-24 hours at 33° C., 8-point curve, highest concentration 20 μM; for Maximum % activity (%): maximum at any tested concentration, normalized to on-plate positive control (3 μM)
Outline: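 CFBE41o- cells with HRP-tagged F508delCFTR, expression induced by 0.5 μg/mL doxycycline for 72 h at 37 °C, then compound for 18-24 h at 33 °C (8-point, 3-fold, top 20 μM). Surface HRP measured by luminol luminescence; % activity normalised to 3 μM positive-control corrector; EC50 from variable-slope sigmoidal fit, three replicate plates.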

T1 sequence (P13569 with tags, fused parts or gaps DEL508-508 limits assumed): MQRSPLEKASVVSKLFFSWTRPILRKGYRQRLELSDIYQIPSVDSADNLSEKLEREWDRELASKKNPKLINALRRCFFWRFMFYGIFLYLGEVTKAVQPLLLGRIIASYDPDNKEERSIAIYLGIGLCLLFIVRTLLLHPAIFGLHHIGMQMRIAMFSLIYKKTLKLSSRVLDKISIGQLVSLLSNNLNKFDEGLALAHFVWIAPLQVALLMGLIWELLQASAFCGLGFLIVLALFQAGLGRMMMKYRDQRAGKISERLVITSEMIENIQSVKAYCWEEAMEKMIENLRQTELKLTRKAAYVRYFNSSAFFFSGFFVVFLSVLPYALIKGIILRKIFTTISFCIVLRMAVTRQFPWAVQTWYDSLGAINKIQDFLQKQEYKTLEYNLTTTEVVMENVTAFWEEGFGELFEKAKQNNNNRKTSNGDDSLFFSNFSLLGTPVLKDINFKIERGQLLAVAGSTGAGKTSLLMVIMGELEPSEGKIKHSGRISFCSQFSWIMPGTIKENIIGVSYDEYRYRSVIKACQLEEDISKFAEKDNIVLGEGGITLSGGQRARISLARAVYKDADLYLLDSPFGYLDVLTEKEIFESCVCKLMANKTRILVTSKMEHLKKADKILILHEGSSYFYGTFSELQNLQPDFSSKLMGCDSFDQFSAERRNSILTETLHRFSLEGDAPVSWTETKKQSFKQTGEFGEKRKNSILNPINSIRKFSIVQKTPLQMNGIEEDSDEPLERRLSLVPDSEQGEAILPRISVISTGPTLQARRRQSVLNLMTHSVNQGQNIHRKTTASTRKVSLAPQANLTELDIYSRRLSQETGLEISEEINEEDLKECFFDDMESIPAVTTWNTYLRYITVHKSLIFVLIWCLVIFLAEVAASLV
T1 sequence (P13569 919-1480 limits assumed, stated change not applied): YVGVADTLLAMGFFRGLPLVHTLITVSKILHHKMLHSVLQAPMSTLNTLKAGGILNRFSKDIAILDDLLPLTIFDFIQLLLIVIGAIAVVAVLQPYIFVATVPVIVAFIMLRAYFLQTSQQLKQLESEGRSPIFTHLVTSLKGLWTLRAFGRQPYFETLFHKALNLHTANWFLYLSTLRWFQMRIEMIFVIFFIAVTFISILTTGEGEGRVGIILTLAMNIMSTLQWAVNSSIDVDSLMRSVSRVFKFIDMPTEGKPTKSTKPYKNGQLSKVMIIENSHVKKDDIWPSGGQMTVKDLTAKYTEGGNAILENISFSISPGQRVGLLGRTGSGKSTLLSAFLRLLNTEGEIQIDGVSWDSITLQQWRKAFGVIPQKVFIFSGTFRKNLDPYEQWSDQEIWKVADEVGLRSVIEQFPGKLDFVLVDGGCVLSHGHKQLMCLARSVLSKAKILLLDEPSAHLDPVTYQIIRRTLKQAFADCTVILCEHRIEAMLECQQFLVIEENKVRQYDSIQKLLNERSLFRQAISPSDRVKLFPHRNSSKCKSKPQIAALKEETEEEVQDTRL

| Compound | EC50 [nM] | Maximum % activity (%) |
| --- | --- | --- |
| C[C@]1(C(=O)N[C@@H]2C[C@H]([C@H]3CC[C@H](C(=O)N4CCN(CCO)CC4)CC3)Oc3cc(OC(F)(F)F)ccc32)COc2cc3c(cc21)OC(F)(F)O3 [Example 266, (7R)-2,2-difluoro-N-[(2R,4R)-2-{trans-4-[4-(2-hydroxyethyl)piperazine-1-carbonyl]cyclohexyl}-7-(trifluoromethoxy)-3,4-dihydro-2H-1-benzopyran-4-yl]-7-methyl-6,7-dihydro-2H-furo[2,3-f][1,3]benzodioxole-7-carboxamide] | 110 | 160 |
| COC(=O)c1ccc(-c2cccc(NC(=O)C3(C)COc4cc5c(cc43)OC(F)(F)O5)c2)cc1 (stereo not drawn) [Example 66, methyl 3′-[(2,2-difluoro-7-methyl-6,7-dihydro-2H-furo[2,3-f][1,3]benzodioxole-7-carbonyl)amino][1,1′-biphenyl]-4-carboxylate] | 4110 | 160 |
| COc1ccc2c(c1)O[C@@H](c1ccc(C(=O)NC(C)CC(N)=O)cn1)C[C@H]2NC(=O)[C@@]1(C)COc2cc3c(cc21)OC(F)(F)O3 (stereo partly drawn) [Example 229, N-(4-amino-4-oxobutan-2-yl)-6-[(2R,4R)-4-{[(7R)-2,2-difluoro-7-methyl-6,7-dihydro-2H-furo[2,3-f][1,3]benzodioxole-7-carbonyl]amino}-7-methoxy-3,4-dihydro-2H-1-benzopyran-2-yl]pyridine-3-carboxamide] | 110 | 118 |
| CCOC(=O)[C@H]1CC[C@H]([C@H]2C[C@@H](NC(=O)[C@@]3(C)COc4cc5c(cc43)OC(F)(F)O5)c3ccc(OC(F)F)cc3O2)CC1 [Example 156, ethyl trans-4-[(2R,4R)-7-(difluoromethoxy)-4-{[(7R)-2,2-difluoro-7-methyl-6,7-dihydro-2H-furo[2,3-f][1,3]benzodioxole-7-carbonyl]amino}-3,4-dihydro-2H-1-benzopyran-2-yl]cyclohexane-1-carboxylate] | 90 | 142 |
| COc1ccc2c(c1)O[C@@H](c1ccc(Cl)nn1)C[C@H]2NC(=O)[C@@]1(C)COc2cc3c(cc21)OC(F)(F)O3 [Example 195, (7R)—N-[(2R,4R)-2-(6-chloropyridazin-3-yl)-7-methoxy-3,4-dihydro-2H-1-benzopyran-4-yl]-2,2-difluoro-7-methyl-6,7-dihydro-2H-furo[2,3-f][1,3]benzodioxole-7-carboxamide] | 340 | 101 |
| C[C@]1(C(=O)Nc2cc(-c3ccccc3)nn(C[C@H](O)[C@H](O)CO)c2=O)COc2cc3c(cc21)OC(F)(F)O3 [Example 105, (7R)-2,2-difluoro-7-methyl-N-{3-oxo-6-phenyl-2-[(2S,3R)-2,3,4-trihydroxybutyl]-2,3-dihydropyridazin-4-yl}-6,7-dihydro-2H-furo[2,3-f][1,3]benzodioxole-7-carboxamide] | > 20000 | 5 |
| CCOC(=O)[C@H]1CC[C@@H]([C@@H]2C[C@H](NC(=O)[C@@]3(C)COc4cc5c(cc43)OC(F)(F)O5)c3ccc(OC(F)(F)F)cc3O2)CC1 [Example 158, ethyl cis-4-[(2S,4S)-4-{[(7R)-2,2-difluoro-7-methyl-6,7-dihydro-2H-furo[2,3-f][1,3]benzodioxole-7-carbonyl]amino}-7-(trifluoromethoxy)-3,4-dihydro-2H-1-benzopyran-2-yl]cyclohexane-1-carboxylate] | 3670 | 111 |
| COc1ccc2c(c1)O[C@@H](c1cnc([C@@H](O)CO)cn1)C[C@H]2NC(=O)[C@@]1(C)COc2cc3c(cc21)OC(F)(F)O3 (single isomer, unassigned) [Example 191] | 70 | 123 |
| C[C@]1(C(=O)Nc2cccc(N3CCC(S(C)(=O)=O)C3)n2)COc2cc3c(cc21)OC(F)(F)O3 (stereo partly drawn) [Example 109, (7R)-2,2-difluoro-N-{6-[3-(methanesulfonyl)pyrrolidin-1-yl]pyridin-2-yl}-7-methyl-6,7-dihydro-2H-furo[2,3-f][1,3]benzodioxole-7-carboxamide] | 580 | 89 |
| COc1ccc2c(c1)O[C@@H](c1cnc(Cl)cn1)C[C@H]2NC(=O)[C@@]1(C)COc2cc3c(cc21)OC(F)(F)O3 [Example 193, (7R)—N-[(2R,4R)-2-(5-chloropyrazin-2-yl)-7-methoxy-3,4-dihydro-2H-1-benzopyran-4-yl]-2,2-difluoro-7-methyl-6,7-dihydro-2H-furo[2,3-f][1,3]benzodioxole-7-carboxamide] | 180 | 118 |
| 1-(6-{[(7R)-2,2-difluoro-7-methyl-6,7-dihydro-2H-furo[2,3-f][1,3]benzodioxole-7-carbonyl]amino}pyridin-2-yl)-4,4-dimethylpyrrolidine-3-carboxylic acid [Example 115] | 1000 | 147 |
| CC(C)(COCc1ccccc1)c1cc2cc(NC(=O)[C@]3(C)COc4cc5c(cc43)OC(F)(F)O5)c(F)cc2n1C[C@@H](O)COCc1ccccc1 [Example 205, (7S)—N-{1-[(2R)-3-(benzyloxy)-2-hydroxypropyl]-2-[1-(benzyloxy)-2-methylpropan-2-yl]-6-fluoro-1H-indol-5-yl}-2,2-difluoro-7-methyl-6,7-dihydro-2H-furo[2,3-f][1,3]benzodioxole-7-carboxamide] | > 20000 | 18 |
| COc1ccc2c(c1)O[C@@H](c1ccc(C(=O)N3CCC(O)CC3)cn1)C[C@H]2NC(=O)[C@@]1(C)COc2cc3c(cc21)OC(F)(F)O3 [Example 212, (7R)-2,2-difluoro-N-{(2R,4R)-2-[5-(4-hydroxypiperidine-1-carbonyl)pyridin-2-yl]-7-methoxy-3,4-dihydro-2H-1-benzopyran-4-yl}-7-methyl-6,7-dihydro-2H-furo[2,3-f][1,3]benzodioxole-7-carboxamide] | 30 | 119 |

Further compounds by falling EC50, results first:

| EC50 [nM] | Maximum % activity (%) | Compound |
| --- | --- | --- |
| 8770 | 31 | COC(=O)c1ccc([C@H]2C[C@@H](NC(=O)[C@]3(C)COc4cc5c(cc43)OC(F)(F)O5)c3ccc(OC)cc3O2)cc1 [Example 17, methyl 4-[(2R,4R)-4-{[(7S)-2,2-difluoro-7-methyl-6,7-dihydro-2H-furo[2,3-f][1,3]benzodioxole-7-carbonyl]amino}-7-methoxy-3,4-dihydro-2H-1-benzopyran-2-yl]benzoate] |
| 8390 | 70 | CC1(C(=O)Nc2cccc(F)n2)COc2cc3c(cc21)OC(F)(F)O3 (stereo not drawn) [Example 67, 2,2-difluoro-N-(6-fluoropyridin-2-yl)-7-methyl-6,7-dihydro-2H-furo[2,3-f][1,3]benzodioxole-7-carboxamide] |
| 4470 | 44 | CC1(C(=O)Nc2nc(-c3ccc(C(=O)O)cc3)cs2)COc2cc3c(cc21)OC(F)(F)O3 (stereo not drawn) [Example 68, 4-{2-[(2,2-difluoro-7-methyl-6,7-dihydro-2H-furo[2,3-f][1,3]benzodioxole-7-carbonyl)amino]-1,3-thiazol-4-yl}benzoic acid] |
| 1390 | 136 | C[C@]1(C(=O)Nc2cccc(-c3cccc(C(=O)O)c3F)n2)COc2cc3c(cc21)OC(F)(F)O3 [Example 125, 3-(6-{[(7R)-2,2-difluoro-7-methyl-6,7-dihydro-2H-furo[2,3-f][1,3]benzodioxole-7-carbonyl]amino}pyridin-2-yl)-2-fluorobenzoic acid] |
| 640 | 140 | C[C@]1(C(=O)N[C@@H]2C[C@H](C3CCC(CN)(C(=O)O)CC3)Oc3cc(OC(F)(F)F)ccc32)COc2cc3c(cc21)OC(F)(F)O3 (stereo partly drawn) [Example 289, 1-(aminomethyl)-4-[(2R,4R)-4-{[(7R)-2,2-difluoro-7-methyl-6,7-dihydro-2H-furo[2,3-f][1,3]benzodioxole-7-carbonyl]amino}-7-(trifluoromethoxy)-3,4-dihydro-2H-1-benzopyran-2-yl]cyclohexane-1-carboxylic acid] |
| 90 | 166 | CC(C)(O)CNC(=O)[C@H]1CC[C@H]([C@H]2C[C@@H](NC(=O)[C@@]3(C)COc4cc5c(cc43)OC(F)(F)O5)c3ccc(OC(F)(F)F)cc3O2)CC1 [Example 267, (7R)-2,2-difluoro-N-[(2R,4R)-2-{trans-4-[(2-hydroxy-2-methylpropyl)carbamoyl]cyclohexyl}-7-(trifluoromethoxy)-3,4-dihydro-2H-1-benzopyran-4-yl]-7-methyl-6,7-dihydro-2H-furo[2,3-f][1,3]benzodioxole-7-carboxamide] |
| 80 | 173 | C[C@]1(C(=O)N[C@@H]2C[C@H]([C@H]3CC[C@H](C(=O)N4CCC(O)CC4)CC3)Oc3cc(OC(F)(F)F)ccc32)COc2cc3c(cc21)OC(F)(F)O3 [Example 265, (7R)-2,2-difluoro-N-[(2R,4R)-2-[trans-4-(4-hydroxypiperidine-1-carbonyl)cyclohexyl]-7-(trifluoromethoxy)-3,4-dihydro-2H-1-benzopyran-4-yl]-7-methyl-6,7-dihydro-2H-furo[2,3-f][1,3]benzodioxole-7-carboxamide] |
| 70 | 113 | COc1ccc2c(c1)O[C@@H](c1ccc(C(=O)NCC(N)=O)cn1)C[C@H]2NC(=O)[C@@]1(C)COc2cc3c(cc21)OC(F)(F)O3 [Example 227, N-(2-amino-2-oxoethyl)-6-[(2R,4R)-4-{[(7R)-2,2-difluoro-7-methyl-6,7-dihydro-2H-furo[2,3-f][1,3]benzodioxole-7-carbonyl]amino}-7-methoxy-3,4-dihydro-2H-1-benzopyran-2-yl]pyridine-3-carboxamide] |

Reference: patent US9840513B2 (AbbVie S.à.r.l., priority 2015, dated 2017)
